Measurements published in paper PMC8691714 (Cancer Research Communications, 2021).

Columns and labels:
BTK = assay: Immunoblotting of BTK signaling in primary CLL cells; format: cell-based, human; details: ibrutinib 1 μmol/L with cobicistat 1, 10 μmol/L
Method: Blood was drawn from patients with newly diagnosed, untreated CLL after receipt of written informed consent under a protocol approved by the Institutional Review Board of The Ohio State University (Columbus, OH) in accordance with the Declaration of Helsinki. B cells were isolated from whole blood using Rosette-Sep B (StemCell Technologies). Primary CLL cells were cultured in RPMI1640 medium supplemented with 10% FBS, 100 U/mL penicillin, 100 μg/mL streptomycin, and 2 mmol/L […]. […] After 1 hour, the cells were pelleted and resuspended in fresh media. For experiments with extended drug exposure, DMSO and cobicistat were added again after washout.
After 15 minutes of stimulation, cell lysates were collected and analyzed by SDS-PAGE. Protein was transferred to nitrocellulose and blots were probed with primary antibodies and horseradish peroxidase (HRP)-conjugated secondary antibodies. Blots were imaged using WesternBright chemiluminescent substrate (Advansta) on an X-ray film. Phosphorylated proteins were analyzed first, then antibodies were removed using Western Blot Stripping Buffer (Thermo Fisher Scientific) before analyzing total protein. Membranes were stripped after imaging total proteins before analyzing loading control. […] Loading controls were assessed for each membrane and are presented with corresponding proteins analyzed on the same membrane.

TMD8 cells = assay: MTT viability assay, TMD8 cells, 72 hours; format: cell-based, human
Method: Cell viability was assessed after 72 hours of incubation.

[1] = design: method as in earlier work; details: PBPK model parameter, ref [17, 18] and Drugbank, cited from earlier work
[2] = design: method as in earlier work; details: PBPK model parameter, ref [17, 18] and Drugbank, cited from earlier work; remark: listed apart in the source
[3] = design: method as in earlier work; details: PBPK model parameter, ref [17, 18] and Drugbank, cited from earlier work; remark: listed apart in the source

Row | Structure (SMILES) | impact on ibrutinib's ability to suppress BTK signaling (BTK) | influence on the antileukemic activity of ibrutinib (TMD8 cells; cobicistat 0.1, 1 or 10 μmol/L) | pKa ([1]; acid dissociation constant) | Log Po:w ([1]; octanol/water partition coefficient) | B/P ratio ([2]; blood to plasma ratio) | fu, plasma ([2]; unbound drug in the plasma) | Ka [3] | Clpo ([3]; oral clearance) | Vss ([3]; steady-state volume of distribution) [L/kg] | influence on the antileukemic activity of ibrutinib (TMD8 cells; ketoconazole 0.1, 1 or 10 μmol/L)
1 | CC(C)c1nc(CN(C)C(=O)N[C@@H](CCN2CCOCC2)C(=O)N[C@H](CC[C@H](Cc2ccccc2)NC(=O)OCc2cncs2)Cc2ccccc2)cs1 [Cobicistat] | did not impact | neither ketoconazole nor cobicistat negatively influenced | 6.69 | 4.36 | 0.55 | 0.020 | Ka (1/h)= 0.29 | Clpo (L/h) : 14 | 0.46 | –
2 | CC(=O)N1CCN(c2ccc(OCC3COC(Cn4ccnc4)(c4ccc(Cl)cc4Cl)O3)cc2)CC1 (stereo not shown) [Ketoconazole] | – | – | – | – | – | – | – | – | – | neither ketoconazole nor cobicistat negatively influenced
